Test results taken from patent publication US20120010206A1, “IMIDAZOLOPYRIDINE COMPOUNDS USEFUL FOR THE TREATMENT OF DEGENERATIVE AND INFLAMMATORY DISEASES” (priority 2006, published 2012).
pEC50, pIC50: −log10 of the molar value.

Legend:
TAK1-TAB1 fusion protein = target: T1, TAK1-TAB1 fusion protein (Homo sapiens, UniProt O43318); assay: In vitro TAK1 kinase assay (33P-ATP, casein substrate); format: biochemical; conditions: semi-quantitative score, at least two independent experiments
T1 construct: purchased Upstate 14-600
T1 sequence (O43318 with tags, fused parts or gaps limits assumed): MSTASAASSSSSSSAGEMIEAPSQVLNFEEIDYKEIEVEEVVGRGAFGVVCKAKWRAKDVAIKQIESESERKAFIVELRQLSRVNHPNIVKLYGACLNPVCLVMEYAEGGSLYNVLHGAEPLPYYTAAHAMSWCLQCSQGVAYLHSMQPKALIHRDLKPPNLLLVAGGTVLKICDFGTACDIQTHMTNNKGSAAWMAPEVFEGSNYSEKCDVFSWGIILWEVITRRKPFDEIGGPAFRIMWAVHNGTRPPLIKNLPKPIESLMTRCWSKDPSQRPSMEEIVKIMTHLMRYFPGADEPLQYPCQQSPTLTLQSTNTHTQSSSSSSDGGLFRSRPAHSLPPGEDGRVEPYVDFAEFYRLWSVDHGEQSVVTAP
Procedure, shortened: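 Radiometric assay with active TAK1-TAB1 fusion protein (0.5 mU), 0.1 mg/mL casein, ATP at 5 µM plus [33P]-γ-ATP, in 10 mM MOPS pH 7.0, 1 mM EDTA. Reactions ran 90 min at 30 °C, were stopped with phosphoric acid and filter-counted; percent inhibition from ≥2 experiments gave semi-quantitative potency scores.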

[1] = tested on: MMP1 expression from activated SFs (RASF); assay: MMP assay: MMP1 expression (ELISA) by TNF-α-triggered RASFs; format: cell-based; conditions: RASF triggered with TNFα, MMP1 ELISA after 48 hrs, semi-quantitative score
Procedure, shortened: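 Rheumatoid arthritis synovial fibroblasts (passage 10–12) were preincubated 90 min with compound in M199 with 1% FBS, then stimulated with TNF-α (10 ng/mL final) or complex trigger (12.5% final) for 48 h. MMP1 in the supernatant was quantified by sandwich luminescence ELISA. Controls were stimulated cells with 0.2% DMSO vehicle and unstimulated cells.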

| Compound | pIC50 (TAK1-TAB1 fusion protein) | pEC50 [1] |
| --- | --- | --- |
| O=C(NCCCN1CCCC1)c1ccc(Nc2ccc(-c3ccc4c(c3)CNC4=O)n3ccnc23)cc1 [Compound 51, 4-(5-(1-oxoisoindolin-5-yl)imidazo[1,2-a]pyridin-8-ylamino)-N-(3-(pyrrolidin-1-yl)propyl)benzamide] | 6.00 to 7.00 | < 5.52 |
| CCC(C)N1CCN(C(=O)c2ccc(Nc3ccc(-c4ccc5c(c4)CNC5=O)n4ccnc34)cc2)CC1 (centres unmarked) [Compound 52, 5-(8-(4-(4-sec-butylpiperazine-1-carbonyl)phenylamino)imidazo [1,2-a]pyridin-5-yl)isoindolin-1-one] | 6.00 to 7.00 | < 5.52 |
| CCN1CCN(C(=O)c2ccc(Nc3ccc(-c4ccc5c(c4)CNC5=O)n4ccnc34)cc2)CC1 [Compound 53, 5-(8-(4-(4-ethylpiperazine-1-carbonyl)phenylamino)imidazo [1,2-a]pyridin-5-yl)isoindolin-1-one] | > 7.00 | < 5.52 |
| CN1CCN(c2ccc(Nc3ccc(-c4ccc(C(N)=O)cc4)n4ccnc34)cc2F)CC1 [Compound 63] | 6.00 to 7.00 | < 5.52 |
| CS(=O)(=O)c1ccc(Nc2ccc(-c3cc[nH]c(=O)c3)n3ccnc23)cc1 [Compound 64] | 6.00 to 7.00 | 5.52 to 6.00 |
| O=c1cc(-c2ccc(Nc3ccc(N4CCOCC4)c(F)c3)c3nccn23)cc[nH]1 [Compound 65] | 6.00 to 7.00 | 6.00 to 7.00 |
| NC(=O)c1ccc(-c2ccc(Nc3ccc(N4CCOCC4)c(F)c3)c3nccn23)cc1 [Compound 66] | 5.52 to 6.00 | 6.00 to 7.00 |
| NC(=O)c1ccc(-c2ccc(Nc3ccc(N4CCOCC4)c(F)c3)c3nccn23)cc1F [Compound 67] | < 5.52 | 6.00 to 7.00 |
| O=c1cc(-c2ccc(Nc3ccc(N4CCOCC4)cc3)c3nccn23)cc[nH]1 [Compound 68] | 6.00 to 7.00 | 6.00 to 7.00 |
| Fc1cc(Nc2ccc(-c3cn[nH]c3)n3ccnc23)ccc1N1CCOCC1 [Compound 69] | 6.00 to 7.00 | 5.52 to 6.00 |
| CC(=O)Nc1ccc(-c2ccc(Nc3ccc(N4CCN(C(C)C)CC4)cc3)c3nccn23)cc1 [Compound 70] | < 5.52 | < 5.52 |
| CS(=O)(=O)c1ccc(Nc2ccc(-c3cn[nH]c3)n3ccnc23)cc1 [Compound 71] | 6.00 to 7.00 | 5.52 to 6.00 |
| CS(=O)(=O)c1ccc(Nc2ccc(-c3ccc(C(N)=O)c(F)c3)n3ccnc23)cc1 [Compound 72] | 5.52 to 6.00 | 5.52 to 6.00 |
| NC(=O)c1ccc(-c2ccc(Nc3ccc(N4CCOCC4)c(F)c3)c3nccn23)cc1Cl [Compound 73] | < 5.52 | 6.00 to 7.00 |
| CC(C)N1CCN(c2ccc(Nc3ccc(-c4cc[nH]c(=O)c4)n4ccnc34)cc2)CC1 [Compound 74] | > 7.00 | 6.00 to 7.00 |
| CC(C)N1CCN(c2ccc(Nc3ccc(-c4cccc5[nH]ccc45)n4ccnc34)cc2)CC1 [Compound 75] | 6.00 to 7.00 | < 5.52 |
| CCCN1CCN(c2ccc(Nc3ccc(-c4ccc(C(N)=O)cc4)n4ccnc34)cc2)CC1 [Compound 76] | 6.00 to 7.00 | 6.00 to 7.00 |
| NC(=O)c1ccc(-c2ccc(Nc3ccc(N4CCN(C5CCCCC5)CC4)cc3)c3nccn23)cc1 [Compound 77] | 6.00 to 7.00 | 5.52 to 6.00 |
| NC(=O)c1ccc(-c2ccc(Nc3ccc(N4CCN(C5CCC5)CC4)cc3)c3nccn23)cc1 [Compound 78] | 6.00 to 7.00 | < 5.52 |
| CC(C)CCN1CCN(c2ccc(Nc3ccc(-c4ccc(C(N)=O)cc4)n4ccnc34)cc2)CC1 [Compound 79] | 6.00 to 7.00 | < 5.52 |
| CCC(CC)N1CCN(c2ccc(Nc3ccc(-c4ccc(C(N)=O)cc4)n4ccnc34)cc2)CC1 [Compound 80] | 6.00 to 7.00 | < 5.52 |
| CCN1CCN(c2ccc(Nc3ccc(-c4ccc(C(N)=O)cc4)n4ccnc34)cc2)CC1 [Compound 81] | 6.00 to 7.00 | 5.52 to 6.00 |

| Compound | pIC50 (TAK1-TAB1 fusion protein) | pEC50 [1] |
| --- | --- | --- |
| c1cn2c(-c3cn[nH]c3)ccc(Nc3ccc(N4CCN(C5CCC5)CC4)cc3)c2n1 [Compound 82] | 6.00 to 7.00 | < 5.52 |
| NC(=O)c1ccc(-c2ccc(Nc3ccc(N4CCN(C5CC5)CC4)cc3)c3nccn23)cc1 [Compound 83] | 5.52 to 6.00 | < 5.52 |
| CCCN1CCN(c2ccc(Nc3ccc(-c4cc[nH]c(=O)c4)n4ccnc34)cc2)CC1 [Compound 84] | 6.00 to 7.00 | 6.00 to 7.00 |
| O=c1cc(-c2ccc(Nc3ccc(N4CCN(C5CCC5)CC4)cc3)c3nccn23)cc[nH]1 [Compound 85] | 6.00 to 7.00 | 6.00 to 7.00 |
| CC(C)CCN1CCN(c2ccc(Nc3ccc(-c4cc[nH]c(=O)c4)n4ccnc34)cc2)CC1 [Compound 86] | 6.00 to 7.00 | 5.52 to 6.00 |
| CCC(CC)N1CCN(c2ccc(Nc3ccc(-c4cc[nH]c(=O)c4)n4ccnc34)cc2)CC1 [Compound 87] | 6.00 to 7.00 | 6.00 to 7.00 |
| O=c1cc(-c2ccc(Nc3ccc(N4CCN(C5CC5)CC4)cc3)c3nccn23)cc[nH]1 [Compound 88] | 5.52 to 6.00 | 5.52 to 6.00 |
| CCC(CC)N1CCN(c2ccc(Nc3ccc(-c4cn[nH]c4)n4ccnc34)cc2)CC1 [Compound 89] | 6.00 to 7.00 | < 5.52 |
| O=c1cc(-c2ccc(Nc3ccc(N4CCN(C5CCCCC5)CC4)cc3)c3nccn23)cc[nH]1 [Compound 90] | 6.00 to 7.00 | 6.00 to 7.00 |
| CCN1CCN(c2ccc(Nc3ccc(-c4cc[nH]c(=O)c4)n4ccnc34)cc2)CC1 [Compound 91] | 6.00 to 7.00 | 6.00 to 7.00 |
| Cc1n[nH]c(C)c1-c1ccc(Nc2ccc(N3CCOCC3)cc2)c2nccn12 [Compound 92] | < 5.52 | < 5.52 |
| CC(C)N1CCN(c2ccc(Nc3ccc(-c4cccc(O)c4)n4ccnc34)cc2)CC1 [Compound 94] | < 5.52 | < 5.52 |
| COc1cc(-c2ccc(Nc3ccc(N4CCN(C(C)C)CC4)cc3)c3nccn23)ccc1O [Compound 95] | 6.00 to 7.00 | < 5.52 |
| CC(C)N1CCC(c2ccc(Nc3ccc(-c4cc[nH]c(=O)c4)n4ccnc34)cc2)CC1 [Compound 96] | 6.00 to 7.00 | 5.52 to 6.00 |
| CC(C)N1CCN(c2ccc(Nc3ccc(-c4cc[nH]c(=O)c4)n4ccnc34)cc2C(F)(F)F)CC1 [Compound 106, 4-{8-[4-(4-Isopropyl-piperazin-1-yl)-3-trifluoromethyl-phenylamino]-imidazo[1,2-a]pyridin-5-yl}-1H-pyridin-2-one] | < 5.52 | 6.00 to 7.00 |
| O=c1cc(-c2ccc(Nc3ccc(C4CCN(CC(F)F)CC4)cc3)c3nccn23)cc[nH]1 [Compound 107, 4-(8-{4-[1-(2,2-Difluoro-ethyl)-piperidin-4-yl]-phenylamino)-imidazo[1,2-a]pyridin-5-yl)-1H-pyridin-2-one] | 5.52 to 6.00 | 5.52 to 6.00 |
| O=c1cc(-c2ccc(Nc3ccc(C4CCN(CCF)CC4)cc3)c3nccn23)cc[nH]1 [Compound 108, 4-(8-{4-[1-(2-Fluoro-ethyl)-piperidin-4-yl]-phenylamino}-imidazo[1,2-a]pyridin-5-yl)-1H-pyridin-2-one] | 6.00 to 7.00 | 5.52 to 6.00 |
| FC(F)CN1CCN(c2ccc(Nc3ccc(-c4cn[nH]c4)n4ccnc34)cc2)CC1 [Compound 109, {4-[4-(2,2-Difluoro-ethyl)-piperazin-1-yl]-phenyl}-[5-(1H-pyrazol-4-yl)-imidazo[1,2-a]pyridin-8-yl]-amine] | 5.52 to 6.00 | 6.00 to 7.00 |
| c1cn2c(-c3cn[nH]c3)ccc(Nc3ccc(N4CCSCC4)cc3)c2n1 [Compound 111, [5-(1H-Pyrazol-4-yl)-imidazo[1,2-a]pyridin-8-yl]-(4-thiomorpholin-4-yl-phenyl)-amine] | 5.52 to 6.00 | 6.00 to 7.00 |
| O=c1cc(-c2ccc(Nc3ccc(N4CCC(N5CCCCC5)CC4)cc3)c3nccn23)cc[nH]1 [Compound 120, 4-[8-(4-[1,4′]Bipiperidinyl-1′-yl-phenylamino)-imidazo[1,2a]pyridi-5-yl]-1H-pyridin-2-one] | 6.00 to 7.00 | 6.00 to 7.00 |
| CC1CN(c2ccc(Nc3ccc(-c4cc[nH]c(=O)c4)n4ccnc34)cc2)CC(C)N1 (centres unmarked) [Compound 124, 4-{8-[4-(3,5-Dimethyl-piperazin-1-yl)-phenylamino]-imidazo[1,2-a]pyridin-5-yl}-1H-pyridin-2-one] | 6.00 to 7.00 | 5.52 to 6.00 |
